Laboratory results as given in patent US20190275145A1, “PARTICULATE VACCINE FORMULATIONS” (PDS BIOTECHNOLOGY CORPORATION, priority 2011, published 2019).

Test system: HPV-positive tumors (TC-1 cells)
Experiment: Tumor regression efficacy of R-DOTAP/S-DOTAP with HPV-16 E7 peptide antigen (encapsulated or micelles) in TC-1 tumor-bearing mice
Conditions: mouse, in vivo
Experimental: Subcutaneous HPV-positive tumors were established in mice by injecting […] TC-1 cells into the flank of each mouse on day 0. On day 6, the mice received a single subcutaneous injection of the formulations in a 0.10 ml injection.
The anti-tumor efficacy of vaccine formulations can be evaluated by evaluating tumor regression. In this example, the vaccine formulation comprises cationic lipid nanoparticles and a peptide antigen assembly in a tubular structure. Furthermore, the exemplary cationic lipid in the present example is R-DOTAP and the exemplary antigen assembly is an HPV-16 E7 micelle.
In this example, H-2Db restricted CTL epitope (amino acid 49-57, RAHYNIVTF [SEQ. ID. NO. 1]) derived from HPV 16 E7 protein was extended to amino acids 43-57, GQAEPDRAHYNIVTF, [SEQ. ID. No. 2]. SEQ. ID. No. 2 was then further extended with the amino acids KSS, and a hydrophobic palmitoyl chain was attached to the elongated peptide.
However, formulating the peptide antigen sequence into a particulate structure comprised only of SEQ. ID. No. 3 allows higher doses of the antigen to be delivered compared to delivery via a cationic lipid adjuvant delivery system. Thus, an effective means of overcoming the weak antigenicity of the peptide can be obtained.
To evaluate this approach, HPV-positive tumors were established as described in Example 3 above. […]

**Q.** Which “antigenicity when formulated and evaluated” value does the source give for “GQAEPDRAHYNIVTF (listed as Homo sapiens) [SEQ. ID. No. 2, HPV 16 E7 amino acids 43-57]” here?
**A.** weak antigen

**Q.** “RAHYNIVTF (listed as Homo sapiens) [SEQ. ID. No. 1]” was tested. Which “antigenicity when formulated and evaluated” value did it give?
**A.** weak antigen
